Measurements published in the NIST ThermoML archive (doi:10.1021/je700036v).
Numbers after ± are expanded uncertainties.

Test: refractive index (Na D-line) (dimensionless)
Details: 293.1 K; 101.33 kPa; Liquid; Standard Abbe refractometry
Molecule `O=CN1CCOCC1` [N-formylmorpholine] has a refractive index of 1.484 ± 0.0007.
Work on `CC1CCCCC1` [methylcyclohexane] yielded a refractive index of 1.423 ± 0.0007.
Work on `Cc1ccccc1` [toluene] yielded a refractive index of 1.4873 ± 0.0007.
